A melting point compilation (Tetko et al.; mined from patent text by program, amines drawn as free bases though some values may be those of a salt)

Molecule `CCOC(=NC(=O)c1ccc(C(F)(F)F)cc1)N1Cc2ccccc2-c2ccccc2C1` has a melting point of 112 to 113 °C.
`Nc1nc2[nH]c(CCC#Cc3ccc(C(=O)N[C@@H](CCC(=O)O)C(=O)O)cn3)cc2c(=O)[nH]1` gave a melting point of 178 to 179 °C.
In the case of `Cc1ccc(Cl)cc1C1CC(=O)c2c(C)ccnc2C1` (centres undefined), the melting point was 125 to 127 °C.
`Cc1cc(-c2csc(N)n2)on1` gave a melting point of 208 to 210 °C.
With `CS(=O)(=O)c1ccc([C@@H](CC2CCCC2)C(=O)Nc2nc3ccccc3[nH]2)cc1` the melting point was 230 to 232 °C.
Molecule `CSc1nc(-c2ccc(F)cc2)nc(-c2ccccn2)n1` has a melting point of 158 °C.
With `Cc1nnnn1-c1ncccc1C(=O)O` the melting point was 178 to 180 °C.
Work on `CCCn1c(=O)c2[nH]c(C3CCCS3)nc2n(CCC)c1=O` (centres undefined) yielded a melting point of 224 to 226 °C.
`CCOC(=O)c1c(CN(CC)CC)nc2ccc(Cl)cc2c1-c1ccc(Cl)cc1` showed a melting point of 132 to 133 °C.
`CCCn1c(-n2nc(-c3c(-c4ccccc4)nn4ccccc34)ccc2=O)cc(=O)n(CCC)c1=O` gave a melting point of 155 °C.
For `Cc1ccc(-c2cc(CN)c(=O)n(CC(C)C)n2)cc1`, the melting point was 74.9 to 77.9 °C.
Work on `N=C(Nc1cc(Cl)cc(NC(=O)/C=C/c2ccccc2C(F)(F)F)c1)c1ccsc1` yielded a melting point of 121 to 123 °C.
`CCCNC(=O)C1(C/C=C/c2ccccc2)c2ccccc2-c2ccccc21` showed a melting point of 95 to 97 °C.
Molecule `OCCCOc1cccc(NC(=S)NCC(F)(F)F)n1` has a melting point of 123 to 124 °C.
For `O=C1CC(c2ccccc2)Cc2[nH]ccc21` (centres undefined), the melting point was 187 to 189 °C.
In the case of `C=CCOc1ccc(C(=O)Oc2ccc(C(=O)O)cc2)cc1C12CC3CC(CC(C3)C1)C2`, the melting point was 260 to 261 °C.
For `Cc1nc(Nc2ccc(Cl)cc2)sc1-c1nc2ccccc2c(=O)n1-c1ccc(Cl)cc1`, the melting point was 267 to 268 °C.
In the case of `COc1ccc(CNC=C(C(C)=O)C(C)=O)cc1`, the melting point was 91.2 to 92.2 °C.
Molecule `O=C(O)c1cc(Oc2ccc(Cl)cc2Cl)c(O)cc1Cl` has a melting point of 192 to 196 °C.
With `CCOC(=O)c1cn(CC)c2nc(N3CCN(C(C)=O)CC3)ncc2c1=O` the melting point was 208 to 210 °C.
Work on `CCCCCCCCCCCCCCCC/C=C\OC[C@H](O)CO` yielded a melting point of 55 to 56 °C.
`O=C1C2CCN(CC2)C1CC(c1ccccc1)c1ccccc1` (centres undefined) gave a melting point of 107 °C.
`O=[N+]([O-])c1cnc(Cl)nc1NCCO` showed a melting point of 123 to 125 °C.
In the case of `CCCCCS(=O)(=O)NC(=O)CCc1cc(C(C)C)nn1Cc1ccc(Cl)cc1Cl`, the melting point was 115 to 117 °C.
Molecule `O=C(O)c1ccc(Cc2ccc([N+](=O)[O-])cc2)cn1` has a melting point of 178 to 182 °C.
In the case of `Cc1ccccc1NC(=O)Nc1ccc(C(=O)N2CCCCc3ccccc32)cc1`, the melting point was 182 °C.
`CC1=C(S(C)(=O)=O)C(c2ccc(Cl)c(Cl)c2)C2=C(CCC2=O)N1` (centres undefined) gave a melting point of 218 to 220 °C.
Molecule `Cc1ccc(C(C)CC(=O)NC(C)c2ccc(NS(C)(=O)=O)c(F)c2)cc1C` (centres undefined) has a melting point of 152 to 154 °C.
For `CC(C)NCC(O)COc1ccc2c(c1)C1CCC2c2ccccc21` (centres undefined), the melting point was 126 to 127 °C.
`O=C(Nc1ccccc1)N1CCc2[nH]c3c(cnc4cc(Cl)ccc43)c2C1` showed a melting point greater than 260 °C.
For `O=C(O)c1cc(S)cc2c1OCCO2`, the melting point was 191 to 192 °C.
Work on `CS(=O)(=O)CCCOc1ccc(/C=C/C(=O)O)c(Oc2ncc(C(F)(F)F)cc2Cl)c1` yielded a melting point of 202 to 203 °C.
In the case of `CC(=O)c1ccc2c(c1)c1cc(-c3ccc(Cl)cc3Cl)c(=O)n(C)c1n2C`, the melting point was 254 to 255 °C.
With `CCN(CC)C(=O)COc1ccc(C(=O)CCl)cc1` the melting point was 89 to 91 °C.
Molecule `CCCC(=O)Oc1ccc(C(O)CNC(C)(C)C)cc1OC(=O)CCC` (centres undefined) has a melting point of 97 to 99 °C.
Molecule `CC(C)C(=O)c1ccc(F)cc1O` has a melting point of 160 °C.
In the case of `CCC12CCC3c4ccc(OC)cc4CCC3C1CCC2(OC(C)=O)C(C)=O` (centres undefined), the melting point was 144 to 148 °C.
Molecule `O=C1N(Cc2ccc(O)cc2)c2ccccc2C12COc1cc3c(cc12)OCCO3` (centres undefined) has a melting point of 243 to 244 °C.
With `CN1C(=O)CC(c2ccccc2)C1C(O)c1ccc(-c2ccc(F)c(Cl)c2)s1` (centres undefined) the melting point was 194 °C.
Work on `Brc1ccc(OCc2ccccc2)cc1OCc1ccccc1` yielded a melting point of 37 to 38 °C.
Work on `CSC(=C[N+](=O)[O-])NCCCCc1c[nH]cn1` yielded a melting point of 157 to 158 °C.
`CCSCCn1c(=N)sc2cc(C(F)(F)C(F)(F)F)ccc21` showed a melting point of less than 50 °C.
With `Cc1nc(-c2ccc(C(F)(F)F)cc2)oc1COc1ccc(OCC(=O)O)cc1` the melting point was 136 to 138 °C.
Molecule `COc1ccc(-c2cnc3cc4cnn(Cc5ccccc5)c4cc3n2)cc1F` has a melting point of 149 to 155 °C.
`CCCNC1CCC(O)CC1` (centres undefined) gave a melting point of 20 °C.
For `COc1cc(C2CCN(C[C@H](Oc3ncc4ccc(-c5ccccc5OC)n4n3)C(F)(F)F)CC2)ccc1N`, the melting point was 73 to 82 °C.
Work on `CN(CCCCCC(=O)O)c1cnc(-c2ccccc2)c(-c2ccccc2)n1` yielded a melting point of 159 to 160 °C.
Work on `CC(=O)Sc1cccs1` yielded a melting point of 112 to 114 °C.
With `O=S1(=O)NCN(CCF)c2ccc(Br)cc21` the melting point was 122 to 124 °C.
Work on `O=C(O)c1cc(OCc2ccccc2)cc(C(F)(F)F)c1` yielded a melting point of 143 to 145 °C.
With `CCC1(CC)NC(=O)N(c2ccc(Cl)c(C(F)(F)F)c2)C1=O` the melting point was 86 to 87 °C.
In the case of `COc1ccc2c(c1OC)OC(C)(C)CC2=O`, the melting point was 75 to 76 °C.
`COc1cc(Br)cc2c(N(C)C)cc(C)nc12` showed a melting point of 115 to 117 °C.
Work on `CCN1CCN(c2cc3c(cc2F)c(=O)c(C(=O)O)cn3CC)CC1C` (centres undefined) yielded a melting point of 203 to 205 °C.
`Cc1ccc2c(c1)c(N1CCN(C(=O)c3cccs3)CC1)c(C#N)c(=O)n2CCN1CCCC1` gave a melting point of 139 to 143 °C.
With `CCOC(=O)c1ccc(COCc2csc3nc(C(=O)NCc4cccc(CS(C)(=O)=O)c4)[nH]c(=O)c23)cc1` the melting point was 227 to 229 °C.
In the case of `CC(=O)OCCN1CCC(CNC(=O)[C@@H]2CCCN2S(=O)(=O)c2ccc(Cl)c(COc3cccc4c(-n5ccnc5)cc(C)nc34)c2Cl)CC1`, the melting point was 93 °C.
`CN(C)C=C1CCN(c2ccccc2)c2ccccc2C1=O` gave a melting point of 131 to 133 °C.
With `CC(=O)CN1CCc2c(c(=O)oc3cc(C)c(N)cc23)C1` the melting point was 196 to 198 °C.
Molecule `CCOCc1cc(OC)c(-c2ccc(C[C@H](NC(=O)c3c(Cl)cccc3Cl)C(=O)O)cc2)c(OC)c1` has a melting point of 196 to 198 °C.
Molecule `Cc1ccc2c(c1)c(=O)c1c(cnn1C)n2CCCNS(C)(=O)=O` has a melting point of 179 °C.
`Cc1c([N+](=O)[O-])c(=O)n(-c2cc(C(=O)OC(C)C)c(Cl)cc2F)c(=O)n1C` gave a melting point of 129 to 131 °C.
Molecule `NP(N)(=O)NC(=O)c1cccc([N+](=O)[O-])c1` has a melting point of 168 to 172 °C.
`CCc1nc2c(C)c(C#N)c(C)nc2n1-c1ccc(CCNC(=O)NS(=O)(=O)c2ccc(C)cc2)cc1` showed a melting point of 133 °C.
In the case of `COc1cccc2c1C[C@H]1C[C@@H](CN3CCC(O)(c4ccc(Cl)cc4)CC3)CN(C)[C@@H]1C2`, the melting point was 202 to 204 °C.
`[N-]=[N+]=Nc1cc(N)cc(I)c1` gave a melting point of 89 to 91 °C.
In the case of `CC(=O)Nc1ccc2c(c1)C(c1cccn1-c1cc(Cl)cc(Cl)c1)C(=O)N2` (centres undefined), the melting point was 267 °C.
`CCNc1nc2c(N)nc3ccccc3c2n1CC(C)C` showed a melting point of 188 to 190 °C.
In the case of `COc1cc(C=CC(=O)N2CCN(c3nc(N)c4cc(OC)c(OC)cc4n3)CC2)cc(OC)c1`, the melting point was 132 to 135 °C.
Work on `CCCc1c(C(=O)C2CC2)c2ccc(C(N)=O)cc2n1Cc1cc2c(cc1Cl)OCO2` yielded a melting point of 162 to 164 °C.
Work on `O=C(O)c1ccc(-c2ccc3cc(OCc4ccccc4)c(C45CC6CC(CC(C6)C4)C5)cc3c2)s1` yielded a melting point of 170 to 171 °C.
Molecule `CC(=O)CC(=O)OC(c1ccccc1)c1ccccc1` has a melting point of 44 to 54 °C.
In the case of `O=c1c2cnc(-c3ccccc3)nc2sn1CCN1CCOCC1`, the melting point was 163 to 165 °C.
`Cc1[nH]c(C(=O)NCC2CCCCC2)c(C)c1-c1nc2ccc(C(=O)c3ccccc3)cc2[nH]1` showed a melting point of 254 to 255 °C.
Work on `Cc1nc(C(=O)COc2ccc(CC3SC(=O)NC3=O)cc2)c(C)o1` (centres undefined) yielded a melting point of 161 to 162 °C.
In the case of `O=c1[nH]c(C(F)(F)F)nc2ccc(I)cc12`, the melting point was greater than 255 °C.
`CCCCCCCCCCCCOC(=O)c1cc(N)ccc1[N+](=O)[O-]` showed a melting point of 58 to 59 °C.
Work on `CCCCOc1cc(/C=C(\OCC)C(=O)O)ccc1OCCc1ccc(OS(=O)(=O)CCCC)c(F)c1` yielded a melting point of 99 °C.
With `CC(=O)Nc1ccccn1` the melting point was 155 to 156 °C.
`CCOC(=O)c1cc2c3n(ccc-2n1)C(Br)C(C)=N3` (centres undefined) showed a melting point of 224 to 226 °C.
Work on `CCN(C(=O)C(C)O)c1cn(-c2cccnc2)nc1Cl` (centres undefined) yielded a melting point of 137 to 138 °C.
`NNCc1ccccc1S(=O)(=O)O` showed a melting point of 257 to 262 °C.
Molecule `CN(CCN1CCN(c2cccc(C(F)(F)F)n2)CC1)C(=O)c1ccc(F)cc1` has a melting point of 144 °C.
`Cc1ccccc1C(=O)Nc1ccc(C(=O)N2CCCC(N(C)C)c3ccccc32)cc1O` (centres undefined) gave a melting point of 202 °C.
Work on `Cc1cccc(-c2nc3ccc(N(C)C)nn3c2-c2ccnc(NC3CCCCC3)c2)c1` yielded a melting point of 191 to 192 °C.
Work on `Oc1ccc(C#Cc2ccccc2)cc1` yielded a melting point of 83 to 84 °C.
For `COc1cc(-n2c(=O)cc(C(F)(F)F)n(C)c2=O)c(F)cc1Cl`, the melting point was 128 to 130 °C.
`CC1(C)CN=C(NN=C(C=Cc2ccc(OC(F)(F)F)cc2)C=Cc2ccc(OC(F)(F)F)cc2)NC1` gave a melting point of 170 to 172 °C.
`CCN(CC)c1nc2ccnn2c2ncccc12` showed a melting point of 102 °C.
Molecule `CCC(=O)N1CCC(NC(=O)Nc2ccc(C(=O)O)cc2)CC1` has a melting point of 201 to 204 °C.
For `Nc1cccc(CC2COc3ccc(OCc4ccc5ccc(Cl)cc5n4)cc3C2)c1` (single isomer, unassigned; (+)), the melting point was 128 to 130 °C.
`CN(c1ccc(Cl)cc1)S(=O)(=O)c1cccc(C(=O)Nc2ccc(Cl)cc2F)c1` gave a melting point of 119 to 120 °C.
In the case of `CS(=O)(=O)OCCNc1cc(Cl)ccc1[N+](=O)[O-]`, the melting point was 101 to 102 °C.
`CC(C)(CS(=O)(=O)c1ccc(Oc2ccc(Cl)cn2)cc1)C(=O)NO` gave a melting point of 116 to 117 °C.
In the case of `O=[N+]([O-])C(=Cc1cccs1)C1=NCCN1Cc1ccc(Cl)nc1`, the melting point was 189 to 190 °C.
For `NC1=NN(c2ccccc2)C(c2ccc(Cl)c(Cl)c2)C1` (centres undefined), the melting point was 150 to 152 °C.
Work on `O=C(N[C@H](Cc1ccc(C(F)(F)F)cc1)[C@@H](O)c1cccc2ccccc12)c1ccc(F)cc1` (racemic) yielded a melting point of 194 to 195 °C.
Work on `Clc1cccnc1-c1cc(OCCc2ccccn2)c2[nH]nc(Br)c2c1` yielded a melting point greater than 250 °C.
Work on `COC(=O)CCc1cc(C(=O)c2cccc(C(=O)OC)n2)ccc1O` yielded a melting point of 121 to 122 °C.
